Key:
[1] = test system: Puccinia recondita f. Sp. Tritici; assay: Puccinia recondita f. sp. tritici / wheat / leaf disc preventative (brown rust); assay type: in vivo; details: foliar, 168 h, 200 ppm in the applied formulation, wheat leaf segments cv. Kanzler, preventative, inoculated 1 day after application, assessed 7 to 9 days after application, vs untreated, read-out: disease control
In short: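 Preventative leaf-segment test: spray application of diluted formulated compound on wheat cv. Kanzler, spore inoculation after 1 day. Percent control relative to untreated segments rated 7 to 9 days post-application, with incubation at 19° C, 75% relative humidity, 12 h photoperiod.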

Phakopsora pachyrhizi = Phakopsora pachyrhizi / soybean / leaf disc preventative (Asian soybean rust); assay type: in vivo; details: foliar, 288 h, 200 ppm in the applied formulation, soybean leaf disks, inoculated one day after application, assessed 12 to 14 days after application, vs untreated, read-out: disease control
In short: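 Read-out is percent disease control relative to untreated check discs, assessed once untreated discs show adequate disease, 12 to 14 days after application. Compounds, tested at 200 ppm in the applied formulation, are sprayed onto soybean leaf discs one day before inoculation with a spore suspension.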

[2] = test system: Glomerella Lagenarium (Colletotrichum Lagenarium); assay: Glomerella lagenarium (Colletotrichum lagenarium) liquid culture / cucumber / preventative (anthracnose); assay type: cell-based; details: Colletotrichum orbiculare; 20 ppm in the applied formulation; liquid culture in PDB, 24° C., inhibition of growth measured photometrically 3 to 4 days after application, vs untreated; read-out: disease control
In short: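 Conidia from cryogenic storage were mixed into potato dextrose broth. This was added to compound diluted from DMSO into 0.025% Tween20, tested at 20 ppm. Plates were incubated in the dark at 24 °C and 96% relative humidity, and growth was read photometrically after 2–7 days as % activity versus untreated check.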

Uromyces viciae-Fabae = assay: Uromyces viciae-fabae / field bean / leaf disc preventative (faba-bean rust); assay type: in vivo; details: foliar, 288 h, 100 ppm in the applied formulation, field bean leaf discs, inoculated two hours after application, assessed 12 days after application, vs untreated, read-out: disease control
Experimental: Leaf disks or leaf segments of various plant species are cut from plants grown in a greenhouse. The cut leaf disks or segments are placed in multiwell plates (24-well format) onto water agar. The leaf disks are sprayed with a test solution before (preventative) or after (curative) inoculation. Compounds to be tested are prepared as DMSO solutions (max. 10 mg/ml) which are diluted to the appropriate concentration with 0.025% Tween20 just before spraying. The inoculated leaf disks or segments are incubated under defined conditions (temperature, relative humidity, light, etc.) according to the respective test system. A single evaluation of disease level is carried out 3 to 14 days after inoculation, depending on the pathosystem. Percent disease control relative to the untreated check leaf disks or segments is then calculated.
Field bean leaf discs are placed on water agar in multiwell plates (96-well format) and 10 μl of the formulated test compound diluted in acetone and a spreader pipetted onto the leaf disc. Two hours after application leaf discs are inoculated by spraying a spore suspension on the lower leaf surface. The leaf discs are incubated in a climate cabinet at 22° C. with 18 hour day and 70% relative humidity. The activity of a compound is assessed as percent disease control compared to untreated when an appropriate level of disease damage appears in untreated check leaf disks (12 days after application).
The following compounds at 100 ppm in the applied formulation give at least 80% disease control in this test when compared to untreated control leaf discs under the same conditions, which show extensive disease development.

[3] = test system: Puccinia recondita f. Sp. Tritici; assay: Puccinia recondita f. sp. tritici / wheat / leaf disc curative (brown rust); assay type: in vivo; details: foliar, 144 h, 200 ppm in the applied formulation, wheat leaf segments cv. Kanzler, applied 1 day after inoculation, assessed 6 to 8 days after application, vs untreated, read-out: disease control
In short: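 Segments of wheat (cultivar Kanzler) sit on agar and are spore-inoculated first; after one day in darkness at 19° C and 75% RH the diluted formulated compound is sprayed on. A 12 h photoperiod follows at the same temperature and humidity before disease is scored against untreated controls.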

Row | melting point [°C] | SMILES | pest or weed control at 200 ppm [1] [%] | pest or weed control at 200 ppm (Phakopsora pachyrhizi) [%] | inhibition of growth at 20 ppm [2] [%] | pest or weed control at 100 ppm (Uromyces viciae-Fabae) [%] | pest or weed control at 200 ppm [3] [%]
1 |  | FC(F)(F)c1nc(-c2ccc(Cn3nncc3-c3ccccc3)cc2)no1 [Compound 1.3, 3-[4-[(5-phenyltriazol-1-yl)methyl]phenyl]-5-(trifluoromethyl)-1,2,4-oxadiazole] | ≥ 80 | ≥ 80 | ≥ 80 | ≥ 80 | ≥ 80
2 | 161.5 to 164.4 | FC(F)(F)c1nc(-c2ccc(Cn3cc(-c4ccccc4)nn3)cc2)no1 [Compound 1.4, 3-[4-[(4-phenyltriazol-1-yl)methyl]phenyl]-5-(trifluoromethyl)-1,2,4-oxadiazole] | ≥ 80 | ≥ 80 | ≥ 80 | ≥ 80 | 
3 | 157.4 to 160.4 | CC(=O)OCc1cn(Cc2ccc(-c3noc(C(F)(F)F)n3)cc2)nn1 [Compound 1.7, [1-[[4-[5-(trifluoromethyl)-1,2,4-oxadiazol-3-yl]phenyl]methyl]triazol-4-yl]methyl acetate] | ≥ 80 | ≥ 80 | ≥ 80 | ≥ 80 | 
4 | 160.2 to 163.9 | FC(F)(F)c1nc(-c2ccc(Cn3cc(-c4ccsc4)nn3)cc2)no1 [Compound 1.8, 3-[4-[[4-(3-thienyl)triazol-1-yl]methyl]phenyl]-5-(trifluoromethyl)-1,2,4-oxadiazole] | ≥ 80 |  | ≥ 80 | ≥ 80 | ≥ 80
5 |  | CC1(C)CN=C(Cc2ccc(-c3noc(C(F)(F)F)n3)cc2)O1 [Compound 1.10, 3-[4-[(5,5-dimethyl-4H-oxazol-2-yl)methyl]phenyl]-5-(trifluoromethyl)-1,2,4-oxadiazole] | ≥ 80 | ≥ 80 | ≥ 80 | ≥ 80 | ≥ 80
6 | 115.7 to 117.6 | CCOCc1cn(Cc2ccc(-c3noc(C(F)(F)F)n3)cc2)nn1 [Compound 1.11, 3-[4-[[4-(ethoxymethyl)triazol-1-yl]methyl]phenyl]-5-(trifluoromethyl)-1,2,4-oxadiazole] | ≥ 80 | ≥ 80 |  | ≥ 80 | ≥ 80
7 | 187.7 to 196.2 | COc1ccc(-c2cn(Cc3ccc(-c4noc(C(F)(F)F)n4)cc3)nn2)cc1 [Compound 1.12, 3-[4-[[4-(4-methoxyphenyl)triazol-1-yl]methyl]phenyl]-5-(trifluoromethyl)-1,2,4-oxadiazole] | ≥ 80 |  |  | ≥ 80 | 
8 | 185.3 to 189 | Fc1ccc(-c2cn(Cc3ccc(-c4noc(C(F)(F)F)n4)cc3)nn2)cc1 [Compound 1.13, 3-[4-[[4-(4-fluorophenyl)triazol-1-yl]methyl]phenyl]-5-(trifluoromethyl)-1,2,4-oxadiazole] |  |  |  | ≥ 80 | 
9 | 200.6 to 204.2 | Cc1ccc(-c2cn(Cc3ccc(-c4noc(C(F)(F)F)n4)cc3)nn2)cc1 [Compound 1.14, 3-[4-[[4-(p-tolyl)triazol-1-yl]methyl]phenyl]-5-(trifluoromethyl)-1,2,4-oxadiazole] |  |  |  | ≥ 80 | 
10 | 53 to 58 | FC(F)c1cc(C(F)F)n(Cc2ccc(-c3noc(C(F)(F)F)n3)cc2)n1 [Compound 1.17, 3-[4-[[3,5-bis(difluoromethyl)pyrazol-1-yl]methyl]phenyl]-5-(trifluoromethyl)-1,2,4-oxadiazole] |  | ≥ 80 | ≥ 80 | ≥ 80 | 
